The subject of test [1] is F35T cells. Put plainly: Foci reduction in FECD (CAG10-Cy3 FISH, foci per nucleus). Format: cell-based. The following applies: F35T cells, 48 h treatment, foci per nucleus; read-out: FECD EC50, 48 h. On the procedure:
F35T cells were cultured in media containing Opti-MEM (ThermoFisher) supplemented with 8% FBS, 20 μg/mL ascorbic acid, […] CaCl2, 0.08% chondroitin sulfate, 1×Pen/Strep, 100 μg/mL bovine pituitary extract, 5 ng/mL epidermal growth factor, and 20 ng/mL nerve growth factor. Throughout the culture, cells were maintained in an incubator at 37° C. and 5% CO2. Media was refreshed every 48 hours. Once cells reached adequate confluency, they were harvested and seeded in 96 well plates with a density of 5000 cells per well in 200 μL of the supplemented Opti-MEM media. Cells were returned to the incubator and left to settle for 24 hours at 37° C. and 5% CO2. Cells were then treated in 8-point dose response with compounds or negative controls and incubated for 48 hours at 37° C. and 5% CO2. After treatment, cells were fixed with 4% PFA for 20 minutes at room temperature, followed by permeabilization with 70% ethanol. Cells were incubated at −20° C. for a minimum of 1 hour and maximum of 72 hours, after which the ethanol was removed, and cells were washed with PBS. Cells were rehydrated with 30% formamide and 2×SSC buffer for 10 minutes at room temperature. Cells were then incubated overnight at 37° C. in the hybridization solution containing 30% formamide, 2×SSC, 55 mg/mL dextran sulfate, 2.75 mg/mL bovine serum albumin, 0.2 μg/mL Herring sperm DNA, 1% vanadyl-ribonucleoside complex, and 0.05% 10 μM CAG10-Cy3 probe. Cells were washed twice with 30% formamide in 2×SSC, incubating the cells while shaking with the second wash at 37° C. and 200 rpm for 60 minutes. Cells were stained with 5 mg/mL DAPI 1:1000 in PBS, incubating at room temperature for 5 minutes. Cells were then washed with PBS and sealed with adhesive foil, with each well containing a final volume of 150 μL PBS. Cells were imaged on a Cytation 5 and analyzed on a foci per nucleus basis.

Test [2] has as its system Myotonic Dystrophy 1 affected patient fibroblasts (Coriel GM04602; 1600 CTG repeats). Description: DM1 foci reduction assay (EC50 assay; CAG10-Cy3 FISH, foci per nucleus). The format is cell-based. The gist of the method:
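GM04602 DM1 patient fibroblasts (1600 CTG repeats) seeded 24 h, then treated 48 h at 37 °C with an 8-point 1:3 dose series from 3 μM. Cells PFA-fixed, ethanol-permeabilized and hybridized overnight with 5 nM CAG10-Cy3 probe, DAPI counterstained. Imaged at 20×, 4 fields per well, as average foci per nucleus.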

Where [3] appears, read: Homo sapiens, Fibroblast; DM1 patient fibroblasts, 48 h treatment, foci per nucleus; read-out: DM1 EC50, 48 h.
Where [4] appears, read: Homo sapiens, Fibroblast; DM1 patient fibroblasts, foci per nucleus, 48 h treatment; read-out: DM1 EC50, 48 h.

Molecules are shown by their SMILES. pEC50: −log10 of the molar value. Read-outs that look alike come from different tables or passages of the source.

`CCCNC(=O)CCNC(=O)c1nc(NC(=O)c2cc(NC(=O)CCNC(=O)c3nc(NC(=O)CCCNC(=O)c4cc(NC(=O)c5nc(NC(=O)CCNC(=O)c6cc(NC(=O)c7nccn7C)cn6C)cn5C)cn4C)cn3C)cn2C)cn1C` [Compound B-1]: the pEC50 was above 7.00 in test [1] and 6.30 to 7.00 in test [2] (setting [3]).
For `CCOC(=O)CCNC(=O)c1nc(NC(=O)c2cc(NC(=O)CCNC(=O)c3nc(NC(=O)[C@H](N)CCNC(=O)c4cc(NC(=O)c5nc(NC(=O)CCNC(=O)c6cc(NC(=O)c7nccn7C)cn6C)cn5C)cn4C)cn3C)cn2C)cn1C` [Compound B-2] the same measures were 6.30 to 7.00 and 6.30 to 7.00.
The like results for `CCCNC(=O)CCNC(=O)c1nc(NC(=O)c2cc(NC(=O)CCNC(=O)c3nc(NC(=O)[C@H](N)CCNC(=O)c4cc(NC(=O)c5nc(NC(=O)CCNC(=O)c6cc(NC(=O)c7nccn7C)cn6C)cn5C)cn4C)cn3C)cn2C)cn1C` [Compound B-3, N-(5-{[(3R)-3-amino-3-[(1-methyl-2-{[2-({1-methyl-5-[(1-methyl-2-{[2-(propylcarbamoyl)ethyl]carbamoyl}imidazol-4-yl)carbamoyl]pyrrol-3-yl}carbamoyl)ethyl]carbamoyl}imidazol-4-yl)carbamoyl]propyl]carbamoyl}-1-methylpyrrol-3-yl)-1-methyl-4-(3-{[1-methyl-4-(1-methylimidazole-2-amido)pyrrol-2-yl]formamido}propanamido)imidazole-2-carboxamide] were, in that order, 6.00 to 6.30 and above 7.00.
`CCOC(=O)CCNC(=O)c1nc(NC(=O)c2cc(NC(=O)CCNC(=O)c3nc(NC(=O)[C@@H](CCNC(=O)c4cc(NC(=O)c5nc(NC(=O)CCNC(=O)c6cc(NC(=O)c7nccn7C)cn6C)cn5C)cn4C)NC(C)=O)cn3C)cn2C)cn1C` [Compound B-4]: the pEC50 in test [1] and in test [2] (setting [3]) was 6.30 to 7.00 each time.
For the molecule `CCCNC(=O)CCNC(=O)c1nc(NC(=O)c2cc(NC(=O)CCNC(=O)c3nc(NC(=O)[C@@H](CCNC(=O)c4cc(NC(=O)c5nc(NC(=O)CCNC(=O)c6cc(NC(=O)c7nccn7C)cn6C)cn5C)cn4C)NC(C)=O)cn3C)cn2C)cn1C` [Compound B-5], the pEC50 is 6.30 to 7.00 in test [1] and above 7.00 in test [2] (setting [3]).
For the molecule `Cn1cc(NC(=O)c2nc(NC(=O)CCNC(=O)c3cc(NC(=O)c4nc(NC(=O)[C@H](N)CCNC(=O)c5cc(NC(=O)c6nc(NC(=O)CCNC(=O)c7cc(NC(=O)c8nccn8C)cn7C)cn6C)cn5C)cn4C)cn3C)cn2C)cc1C(=O)NCCO` [Compound B-8], the values for the pEC50 in test [1] and in test [2] (setting [3]) were below 6.00 and 6.00 to 6.30, respectively.
For the molecule `CCCNC(=O)c1cc(NC(=O)c2nc(NC(=O)CCNC(=O)c3cc(NC(=O)c4nc(NC(=O)CCCNC(=O)c5cc(NC(=O)c6nc(NC(=O)CCNC(=O)c7cc(NC(=O)c8nccn8C)cn7C)cn6C)cn5C)cn4C)cn3C)cn2C)cn1C` [Compound B-9], the values for the pEC50 in test [1] and in test [2] (setting [3]) were above 7.00 and below 6.00, respectively.
As for `COC(=O)c1cccc(CCCCCN(C)CCCNC(=O)c2nc(NC(=O)c3cc(NC(=O)CCNC(=O)c4nc(NC(=O)CCCNC(=O)c5cc(NC(=O)c6nc(NC(=O)CCNC(=O)c7cc(NC(=O)c8nccn8C)cn7C)cn6C)cn5C)cn4C)cn3C)cn2C)c1` [Compound B-340], the pEC50 in test [2] (setting [3]) is above 7.00.
Still for that read-out and setting: to `COC(=O)c1cncc(OCCOCCOCCNC(=O)c2nc(NC(=O)c3cc(NC(=O)CCNC(=O)c4nc(NC(=O)CCCNC(=O)c5cc(NC(=O)c6nc(NC(=O)CCNC(=O)c7cc(NC(=O)c8nccn8C)cn7C)cn6C)cn5C)cn4C)cn3C)cn2C)c1` [Compound B-342] belongs 6.30 to 7.00; to `CCN(CC)CCCC[C@H](NC(=O)c1cccc(C(=O)OC(C)(C)C)c1)C(=O)NCCOCCOCCOCCOCCOCCNC(=O)c1nc(NC(=O)c2cc(NC(=O)CCNC(=O)c3nc(NC(=O)CCCNC(=O)c4cc(NC(=O)c5nc(NC(=O)CCNC(=O)c6cc(NC(=O)c7nccn7C)cn6C)cn5C)cn4C)cn3C)cn2C)cn1C` [Compound B-344], 6.00 to 6.30.
Same read-out and setting: then `CCN(CC)CCCC[C@H](NC(=O)c1cccc(C(=O)OC(C)(C)C)c1)C(=O)NCCOCCOCCOCCNC(=O)c1nc(NC(=O)c2cc(NC(=O)CCNC(=O)c3nc(NC(=O)CCCNC(=O)c4cc(NC(=O)c5nc(NC(=O)CCNC(=O)c6cc(NC(=O)c7nccn7C)cn6C)cn5C)cn4C)cn3C)cn2C)cn1C` [Compound B-353], with 6.30 to 7.00; and `CCN(CC)CCCC[C@H](NC(=O)c1cccc(C(=O)OC(C)(C)C)c1)C(=O)NCCOCCOCCOCCNC(=O)CCNC(=O)c1nc(NC(=O)c2cc(NC(=O)CCNC(=O)c3nc(NC(=O)CCCNC(=O)c4cc(NC(=O)c5nc(NC(=O)CCNC(=O)c6cc(NC(=O)c7nccn7C)cn6C)cn5C)cn4C)cn3C)cn2C)cn1C` [Compound B-355], with 6.30 to 7.00.
Still for that read-out and setting: then `CN(CCCNC(=O)OC(C)(C)C)CCCNC(=O)c1cc(NC(=O)CCNC(=O)c2nc(NC(=O)CCCNC(=O)c3cc(NC(=O)c4nc(NC(=O)CCNC(=O)c5cc(NC(=O)c6nccn6C)cn5C)cn4C)cn3CCCCCCN=[N+]=[N-])cn2C)cn1C` [Compound B-357], with below 6.00; and `Cn1cc(NC(=O)c2nc(NC(=O)CCNC(=O)c3cc(NC(=O)c4nccn4C)cn3C)cn2C)cc1C(=O)NCCCC(=O)Nc1cn(C)c(C(=O)NCCC(=O)Nc2cc(C(=O)Nc3cn(C)c(C(=O)NCCCN4CCC(C#CC#CC5CCN(C(=O)OC(C)(C)C)CC5)CC4)n3)n(C)c2)n1` [Compound B-360], with above 7.00.
`CN(C)CCCCNC(=O)c1nc(NC(=O)c2cc(NC(=O)CCNC(=O)c3nc(NC(=O)CC4(CNC(=O)c5cc(NC(=O)c6nc(NC(=O)CCNC(=O)c7cc(NC(=O)c8nccn8C)cn7C)cn6C)cn5C)CC4)cn3C)cn2C)cn1C` [Compound B-434]: in test [2] (setting [4]), the pEC50 is above 7.00.
The same measure, in the same setting: then `CCCNC(=O)c1nc(NC(=O)c2cc(NC(=O)CCNC(=O)c3nc(NC(=O)CC4(CNC(=O)c5cc(NC(=O)c6nc(NC(=O)CCNC(=O)c7cc(NC(=O)c8nccn8C)cn7C)cn6C)cn5C)CC4)cn3C)cn2C)cn1C` [Compound B-435, 1-methyl-4-(3-{[1-methyl-4-(1-methylimidazole-2-amido)pyrrol-2-yl]formamido}propanamido)-N-[1-methyl-5-({[1-({[1-methyl-2-({2-[(1-methyl-5-{[1-methyl-2-(propylcarbamoyl)imidazol-4-yl]carbamoyl}pyrrol-3-yl)carbamoyl]ethyl}carbamoyl)imidazol-4-yl]carbamoyl}methyl)cyclopropyl]methyl}carbamoyl)pyrrol-3-yl]imidazole-2-carboxamide], with above 7.00; and `CCn1cc(NC(=O)c2nc(NC(=O)CCNC(=O)c3cc(NC(=O)c4nccn4C)cn3C)cn2C)cc1C(=O)NCC1(CC(=O)Nc2cn(C)c(C(=O)NCCC(=O)Nc3cc(C(=O)Nc4cn(C)c(C(=O)NCCCCN(C)C)n4)n(C)c3)n2)CC1` [Compound B-436], with above 7.00.
As to `CCCNC(=O)c1nc(NC(=O)c2cc(NC(=O)CCNC(=O)c3nc(NC(=O)CC4(CNC(=O)c5cc(NC(=O)c6nc(NC(=O)CCNC(=O)c7cc(NC(=O)c8nccn8CC(F)(F)F)cn7C)cn6C)cn5C)CNC4)cn3C)cn2C)cn1C` [Compound B-440], the pEC50 in test [2] (setting [4]) is 6.30 to 7.00.
As for `CC(C)n1cc(NC(=O)c2nc(NC(=O)CCNC(=O)c3cc(NC(=O)c4nccn4C)cn3C)cn2C)cc1C(=O)NCC1(CC(=O)Nc2cn(C)c(C(=O)NCCC(=O)Nc3cc(C(=O)Nc4cn(C)c(C(=O)NCCCCN(C)C)n4)n(C)c3)n2)CC1` [Compound B-441], the pEC50 in test [2] (setting [4]) is above 7.00.

A word on the pEC50: it is the EC50 on a negative log10 scale, so that one unit is a factor of ten.
